Reference: patent US8562945B2, “Technetium- and rhenium-bis(heteroaryl) complexes and methods of use thereof” (Molecular Insight Pharmaceuticals, Inc., priority 2008, dated 2013)

Columns and labels:
[1] = Rat tissue distribution of 99mTc complexes of example ligands (Table 6); format: in vivo, Sprague-Dawley Rats; conditions: 99mTc complex
Protocol: Rat Tissue Distribution Studies. The distribution and pharmacokinetics of selected ^99mTc-SAAC complexes were evaluated in normal male Sprague Dawley rats (180-200 grams) administered via the tail vein as a bolus injection (approximately 10 μCi/rat) in a constant volume of 0.1 ml. The animals (n=5 per time point) were euthanized by asphyxiation with carbon dioxide at 5, 30, 60, and 120 min post injection. Tissues (blood, heart, lungs, liver, spleen, kidneys, adrenals, stomach, intestines (with contents), testes, skeletal muscle, bone and brain) were dissected, excised, weighed wet, and counted in an automated γ-counter (LKB Model 1282, Wallac Oy, Finland). Tissue time-radioactivity levels expressed as percent injected dose per gram of tissue (% ID/g) was determined.
^99mTc Complexes of various example ligands in Sprague-Dawley Rats.

[2] = Determination of Log P values of 99mTc-SAAC complexes; format: physicochemical; conditions: 99mTc complex; n-octanol / 25 mM pH=7.4 phosphate buffer
Protocol: Determination of Log P Values. The Log P values of the ^99mTc(I)-complexes were determined as follows. The ^99mTc-SAAC complexes were prepared and purified by RP-HPLC. The desired peak was collected and the sample was evaporated under a stream of nitrogen. The residue was dissolved in 25 μL of saline and placed in an equal volume of n-octanol (3 mL) and 25 mM pH=7.4 phosphate buffer (3 mL). The samples were mixed under vortex for 20 min, centrifuged at 8000 rpm for 5 min and three 100 μL aliquots were removed from both the aqueous and the organic layers for analysis on a gamma counter (Wallac 1282). Subsequently, 1 mL of the phosphate bufferTc-complex solution was removed and the process was repeated with fresh n-octanol, for a total number of six extractions to ensure full extraction of all the organic components. The partition coefficients were calculated using the equation: P=(activity concentration in n-octanol)/(activity concentration in aqueous layer). The Log P values reported were calculated from the average of the different measurements.

[3] = Normal rat tissue distribution studies of 99mTc-SAAC complexes (Table 5); format: in vivo, male Sprague Dawley rats; conditions: tail vein, average ± SEM
Protocol: Normal Rat Tissue Distribution Studies. Normal rat tissue distribution studies were performed with [^99mTc(CO)3{η^3-(DpK)}], [Tc(CO)3{η^3-(DTK)}] and [Tc(CO)3{η^3-(PAMAK)}] in groups of male Sprague Dawley rats (n=4/group, 180-200 grams each) at 5, 30, 60, and 120 minutes post injection. The compounds were injected via the tail vein in saline (10 μCi/100 μl). […] All three SAAC ligands had very high accumulation and retention in the gastrointestinal (GI) tract. […] The design of hydrophilic SAAC ligands may alter the pharmacokinetics by mitigating the lipophilicity of the complex and potentially favoring renal, over liver and GI clearance. Such a result may facilitate the development of clinically relevant molecular imaging radiopharmaceuticals with desirable pharmacokinetic properties.

| Compound | Blood tissue distribution ([1]; 5 min) [% ID/g] | Blood tissue distribution ([1]; 30 min) [% ID/g] | Blood tissue distribution ([1]; 60 min) [% ID/g] | Blood tissue distribution ([1]; 120 min) [% ID/g] | GI tissue distribution ([1]; 5 min) [% ID/g] | GI tissue distribution ([1]; 30 min) [% ID/g] | GI tissue distribution ([1]; 60 min) [% ID/g] | GI tissue distribution ([1]; 120 min) [% ID/g] | Kidney tissue distribution ([1]; 5 min) [% ID/g] | Kidney tissue distribution ([1]; 30 min) [% ID/g] | Kidney tissue distribution ([1]; 60 min) [% ID/g] | Kidney tissue distribution ([1]; 120 min) [% ID/g] | Liver tissue distribution ([1]; 5 min) [% ID/g] | Liver tissue distribution ([1]; 30 min) [% ID/g] | Liver tissue distribution ([1]; 60 min) [% ID/g] | Liver tissue distribution ([1]; 120 min) [% ID/g] | Sk. Muscle tissue distribution ([1]; 5 min) [% ID/g] | Sk. Muscle tissue distribution ([1]; 30 min) [% ID/g] | Sk. Muscle tissue distribution ([1]; 60 min) [% ID/g] | Sk. Muscle tissue distribution ([1]; 120 min) [% ID/g] | other results |
| --- | --- | --- | --- | --- | --- | --- | --- | --- | --- | --- | --- | --- | --- | --- | --- | --- | --- | --- | --- | --- | --- |
| N[C@@H](CCCCN(Cc1nccn1CC(=O)O)Cc1nccn1CC(=O)O)C(=O)O (stereo in doubt) [Compound 2, 2,2′-(2,2′-(5-amino-5-carboxypentylazanediyl)bis(methylene)bis(1H-imidazole-2,1-diyl))diacetic acid] | 1.33 ± 0.2 | 1.14 ± 0.23 | 0.86 ± 0.17 | 0.72 ± 0.12 | 0.15 ± 0.02 | 0.44 ± 0.08 | 0.76 ± 0.31 | 1.22 ± 0.27 | 6.85 ± 1.85 | 10.7 ± 2.3 | 16.8 ± 4.8 | 10.2 ± 2.5 | 0.52 ± 0.07 | 0.55 ± 0.07 | 0.42 ± 0.08 | 0.39 ± 0.07 | 0.29 ± 0.04 | 0.21 ± 0.06 | 0.16 ± 0.03 | 0.14 ± 0.02 | – |
| CCOCCn1ccnc1CN(CCCC[C@H](N)C(=O)O)Cc1nccn1CCOCC (stereo in doubt) [Compound 4, 2-amino-6-(bis((1-(2-ethoxyethyl)-1H-imidazol-2-yl)methyl)amino)hexanoic acid] | 0.83 ± 0.09 | 0.09 ± 0.02 | 0.02 ± 0 | 0.01 ± 0 | 0.57 ± 0.13 | 2.33 ± 0.61 | 3.62 ± 0.3 | 2.96 ± 0.44 | 6.86 ± 0.86 | 12.13 ± 2.36 | 12.54 ± 1 | 12.54 ± 0.81 | 1.61 ± 0.32 | 0.35 ± 0.08 | 0.28 ± 0.07 | 0.14 ± 0.02 | 0.13 ± 0.02 | 0.02 ± 0.01 | 0.01 ± 0 | 0.01 ± 0 | – |
| COC(Cn1ccnc1CN(CCCC[C@H](N)C(=O)O)Cc1nccn1CC(OC)OC)OC (stereo in doubt) [Compound 6, 2-amino-6-(bis((1-(2,2-dimethoxyethyl)-1H-imidazol-2-yl)methyl)amino)hexanoic acid] | 1.46 ± 0.21 | 0.47 ± 0.05 | 0.14 ± 0.04 | 0.04 ± 0.01 | 0.34 ± 0.12 | 1.05 ± 0.2 | 1.39 ± 0.24 | 1.21 ± 0.27 | 13.82 ± 2.81 | 34.1 ± 5.59 | 40.25 ± 5.17 | 33.18 ± 2.75 | 1.06 ± 0.34 | 0.45 ± 0.04 | 0.24 ± 0.04 | 0.16 ± 0.02 | 0.3 ± 0.04 | 0.1 ± 0.01 | 0.04 ± 0.01 | 0.01 ± 0 | – |
| NC(CCCCN1CC(=O)[O][Tc-][O]C(=O)C1)C(=O)O.[C-]#[O+].[C-]#[O+].[C-]#[O+] (stereo not shown) [Compound 7-Tc] | – | – | – | – | – | – | – | – | – | – | – | – | – | – | – | – | – | – | – | – | Log P [2]: −2.20 |
| Cn1ccnc1CN(CCCC[C@H](N)C(=O)O)Cc1nccn1C [Compound 13, (S)-2-amino-6-(bis((1-methyl-1H-imidazol-2-yl)methyl)amino)hexanoic acid] | 1.18 ± 0.18 | 0.28 ± 0.03 | 0.11 ± 0.02 | 0.03 ± 0.01 | 0.15 ± 0.02 | 0.45 ± 0.11 | 0.84 ± 0.1 | 1.12 ± 0.37 | 6.65 ± 2.06 | 22.2 ± 3.9 | 25.4 ± 1.7 | 25.5 ± 3.4 | 0.8 ± 0.28 | 1.03 ± 0.21 | 0.86 ± 0.16 | 0.74 ± 0.14 | 0.22 ± 0.03 | 0.06 ± 0.02 | 0.03 ± 0.01 | 0.01 ± 0 | – |
| Cn1ccnc1CN(CCCC[C@H](N)C(=O)O)CC(=O)O [Compound 18, (S)-2-amino-6-((carboxymethyl)((1-methyl-1H-imidazol-2-yl)methyl)amino) hexanoic acid] | 1.03 ± 0.14 | 0.45 ± 0.1 | 0.22 ± 0.02 | 0.09 ± 0.01 | 0.16 ± 0.01 | 1.96 ± 0.49 | 1.64 ± 0.64 | 2.53 ± 0.7 | 10.79 ± 1.97 | 17.05 ± 3.17 | 9.52 ± 2.54 | 3.94 ± 0.43 | 0.95 ± 0.14 | 3.02 ± 0.59 | 0.98 ± 0.22 | 0.44 ± 0.14 | 0.21 ± 0.05 | 0.09 ± 0.02 | 0.05 ± 0.01 | 0.02 ± 0 | – |
| (pyridylamine)monoacetic acid lysine [PAMA-K] | – | – | – | – | – | – | – | – | – | – | – | – | – | – | – | – | – | – | – | – | Log P [2]: −1.80 |
| [^99mTc(CO)3(DPK)] | – | – | – | – | – | – | – | – | – | – | – | – | – | – | – | – | – | – | – | – | Blood tissue distribution ([3]; 5 Min post injection): 7.01 ± 1.38 % ID/g; Blood tissue distribution ([3]; 30 Min. post injection): 1.12 ± 0.31 % ID/g; Blood tissue distribution ([3]; 60 Min. post injection): 0.39 ± 0.16 % ID/g; Blood tissue distribution ([3]; 120 Min post injection): 0.18 ± 0.01 % ID/g; GI tissue distribution ([3]; 5 Min post injection): 4.65 ± 1.78 % ID/g; GI tissue distribution ([3]; 30 Min. post injection): 15.01 ± 1.82 % ID/g; GI tissue distribution ([3]; 60 Min. post injection): 24.46 ± 6.20 % ID/g; GI tissue distribution ([3]; 120 Min post injection): 38.90 ± 5.94 % ID/g; Kidney tissue distribution ([3]; 5 Min post injection): 8.88 ± 3.20 % ID/g; Kidney tissue distribution ([3]; 30 Min. post injection): 9.72 ± 0.68 % ID/g; Kidney tissue distribution ([3]; 60 Min. post injection): 9.47 ± 1.23 % ID/g; Kidney tissue distribution ([3]; 120 Min post injection): 7.08 ± 1.58 % ID/g; Liver tissue distribution ([3]; 5 Min post injection): 16.28 ± 5.12 % ID/g; Liver tissue distribution ([3]; 30 Min. post injection): 26.03 ± 1.50 % ID/g; Liver tissue distribution ([3]; 60 Min. post injection): 22.71 ± 1.14 % ID/g; Liver tissue distribution ([3]; 120 Min post injection): 14.44 ± 2.75 % ID/g |
